# Laboratory results published in PMC8536627, “Hydrolytic stability of anticancer drugs and one metabolite in the aquatic environment” (Environmental Science and Pollution Research International, 2021).
# Where two headings read alike, the source gives them in different places.
# Tests used:
# [1] = set-up: method as in Białk-Bielińska et al. [2017]; conditions: ref Białk-Bielińska et al. [2017]; cited from earlier work
# physchem = conditions: for Hydrolytic stability in the preliminary test: pH 4, 7 and 9, 50 °C
# Description: The incubation was performed in the dark, in order to avoid the influence of the photolysis on degradation of the analytes. The water used for the preparation of buffers was autoclaved, all glassware was clean, flushed with methanol, and dried in high temperature. Samples were closed in glass tubes with a sealed cap. The air from above the solution was removed by a nitrogen stream just before capping. In the preliminary test, solutions of single analytes were prepared in each tested pH: 4, 7, and 9, which is required by the OECD guidelines. There was also a blank sample prepared for each pH. Samples in the preliminary test were prepared in two parallel replicates. Moreover, the complete preliminary test was repeated twice. The preliminary test was performed at 50 °C for 5 days. […] In the case of the extended tests, 7 measuring points were provided during the time of the test. Each measuring point was performed in two parallel replicates. […] The test was conducted for 30 days or to 90 % elimination of a compound. Obtained results were used to determine the hydrolysis rate constant (k) using equation: 1 lnCt/C0=kt
# The HPLC-UV/Vis technique was applied to determine the level of hydrolytic degradation of the analytes. In the preliminary test, the control and blank samples were analyzed at the beginning and the end of the test. […] In the extended test, the samples collected in the time intervals were analyzed, and peak areas were compared to those obtained at the beginning of the test. This was used to determine the kinetic of this hydrolysis process by using the Equation 1. In general, each analyte was analyzed by a simple HPLC method with UV/Vis detection. Gemini C18 (Phenomenex, USA), 5 μm, 110 Å, 150 mm × 4.6 mm chromatographic column was applied for each method and three different mobile phases were used (water or 0.1 % HCOOH) mixed with the acetonitrile. The conditions applied during the LC-MS analysis with an ion trap detector for the qualitative analysis of the samples collected after the extended tests at 20 and 70 °C are presented in the Table S2.
# [2] = set-up: method as in McElnay et al. ([1988]) and Vrignaud et al. ([2015]); conditions: ref McElnay et al. ([1988]) and Vrignaud et al. ([2015]); cited from earlier work
# [3] = HPLC water with 4 % DMSO, ref Negreira et al. ([2013a]), cited from earlier work; for Degradation level / loss: 25 °C, 24 h incubation
# [4] = set-up: method as in Negreira et al. ([2013b]); conditions: acidification of samples, organic modifier such as 50 % methanol or DMSO, previously tested conditions; ref Negreira et al. ([2013b]); cited from earlier work
# [5] = set-up: method as in Yadav et al. [2012]; conditions: also under several stress conditions; ref Yadav et al. [2012]; cited from earlier work
# [6] = set-up: method as in Legay et al. [2014]; conditions: ref Legay et al. [2014]; cited from earlier work
structure (smiles),measurement,setting,value
"CN(Cc1cnc2nc(N)nc(N)c2n1)c1ccc(C(=O)N[C@@H](CCC(=O)O)C(=O)O)cc1 [MTX, methotrexate]",Hydrolytic stability under ecotoxicological test conditions,[1],hydrolytically stable
same,Photolytic stability under ecotoxicological test conditions,[1],susceptible to photolysis
same,half-life,physchem; aqueous buffer,≥ 365 days
same,Hydrolytic stability in the preliminary test,physchem; 5 days,hydrolytically stable
same,Degradation level in the preliminary test,"physchem; pH 4, 50 °C, 5 days, dark",0%
same,Time of proved stability,[2],at least 24 h
same,Stability in 24 h test,"[3]; 4 °C, 24 h",stable
same,Concentration decreased to,"[3]; 4 °C, after 9 days",around 50%
same,Disappeared from solution,"[3]; 15 °C, 24 h",more than 50%
same,Degradation level / loss,[3],65%
same,Stability after acidification and with organic modifier,[4],stable
"O=c1[nH]cc(F)c(=O)[nH]1 [5-FU, 5-fluorouracil]",half-life,physchem; buffer,≥ 365 days
same,Hydrolytic stability in the preliminary test,physchem; 5 days,hydrolytically stable
same,Temperature up to which found stable,[5],up to 275 °C
same,Stability in aqueous solutions for medication purposes,[6],stable
same,Stability in 24 h test,"[3]; 4 °C, 24 h",stable
same,Long-term stability at 4 °C,[3]; 4 °C,stable for 1 month
same,Stability in 24 h test,"[3]; 15 °C, 24 h",still stable
same,Degradation level / loss,[3],11%
